Experimental data reported in PubChem BioAssay (NCI).
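These data come from cells grown in 96-well plates and exposed to compound for 48 hours at five concentrations. GI50 marks 50% less growth. TGI: total growth inhibition.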

Columns and labels:
Experiment in all cases: NCI anticancer screen, dose series, 48 h
[1] = system: DU-145 prostate
[2] = system: NCI-H460 lung
[3] = system: NCI-H226 lung
[4] = system: 786-0 renal
[5] = system: NCI-H522 lung
[6] = system: UACC-257 melanoma
[7] = system: SK-MEL-5 melanoma
[8] = system: MOLT-4 leukemia
[9] = system: COLO 205 colon
[10] = system: RXF 393 renal

Cc1cc(=O)[nH]c2c1C(=O)C(=O)C=C2
GI50 [1]: 25 µM
TGI [1]: 53.9 µM
GI50 [2]: 27.1 µM
TGI [2]: 74 µM
GI50 [3]: 28.6 µM
TGI [3]: 73 µM
GI50 [4]: 18.7 µM
TGI [4]: 36.3 µM
GI50 [5]: > 100 µM
TGI [5]: > 100 µM
GI50 [6]: > 100 µM
TGI [6]: > 100 µM
GI50 [7]: 16.7 µM
TGI [7]: 36.9 µM
GI50 [8]: 39.5 µM
TGI [8]: > 100 µM
GI50 [9]: > 100 µM
TGI [9]: > 100 µM

O=c1cc(/C=C/c2ccccc2)c2ccc(O/C(=C\c3ccccc3)c3nc4ccccc4c(=O)o3)cc2o1
TGI [2]: > 100 µM
TGI [4]: > 100 µM
TGI [6]: 98.4 µM
TGI [7]: 41 µM
TGI [8]: 74.3 µM
TGI [9]: 73.8 µM

Cn1c(=O)ccc2cc(C(=O)c3ccccc3)ccc21
TGI [2]: > 100 µM
TGI [3]: 99.7 µM
TGI [4]: > 100 µM
TGI [5]: 82.7 µM
TGI [7]: 55.7 µM
TGI [8]: > 100 µM
TGI [9]: > 100 µM

COc1ccc2c(c1)[n+](=O)c(C(=O)C/C(=N\NC(=O)C[N+](C)(C)C)C(=O)Nc1cc(Cl)ccc1Cl)c(C)n2O
TGI [2]: > 100 µM
TGI [3]: > 100 µM
TGI [10]: > 100 µM
TGI [4]: > 100 µM
TGI [5]: > 100 µM
TGI [6]: > 100 µM
TGI [7]: > 100 µM
TGI [8]: > 100 µM
TGI [9]: > 100 µM

O=CN/C=C\c1cc(O)ccc1O
TGI [2]: > 56.2 µM
TGI [3]: > 100 µM
TGI [4]: 31.1 µM
TGI [5]: 10 µM
TGI [6]: 19.2 µM
TGI [7]: > 50.9 µM
TGI [8]: 70.6 µM
TGI [9]: 29.5 µM

OC1OC2COC(c3ccccc3)OC2C(O)C1O (stereo unspecified)
TGI [2]: > 100 µM
TGI [3]: > 100 µM
TGI [4]: > 100 µM
TGI [5]: > 100 µM
TGI [6]: > 100 µM
TGI [7]: > 100 µM
TGI [8]: > 100 µM
TGI [9]: > 100 µM

CC(=O)c1ccc(-c2ccc(C(C)=O)s2)s1
TGI [2]: > 100 µM
TGI [3]: > 100 µM
TGI [10]: > 100 µM
TGI [4]: > 100 µM
TGI [5]: > 100 µM
TGI [6]: > 100 µM
TGI [7]: > 100 µM
TGI [8]: > 100 µM
TGI [9]: > 100 µM

CCCCCCCCCCCC(=O)[O][Sn]([CH2]CCC)([CH2]CCC)[CH2]CCC
GI50 [1]: 0.0544 µM
TGI [1]: 0.17 µM
GI50 [2]: 0.0438 µM
TGI [2]: 0.156 µM
GI50 [10]: 0.0483 µM
TGI [10]: 0.117 µM
GI50 [4]: 0.0539 µM
TGI [4]: 0.132 µM
GI50 [5]: 0.0409 µM
TGI [5]: 0.116 µM
GI50 [6]: 0.0533 µM
TGI [6]: 0.181 µM
GI50 [7]: 0.0302 µM
TGI [7]: 0.0786 µM
GI50 [8]: 0.0436 µM
TGI [8]: 0.732 µM
GI50 [9]: 0.0509 µM
TGI [9]: 0.122 µM

COC(=O)/C=C/c1cc(OC)c2c(c1)[C@@H](C(=O)OC)[C@H](c1ccc(OC)c(OC)c1)O2
GI50 [1]: 2.8 µM
TGI [1]: > 100 µM
GI50 [2]: 3.9 µM
TGI [2]: > 100 µM
GI50 [3]: 38.4 µM
TGI [3]: > 100 µM
GI50 [4]: 4.89 µM
TGI [4]: > 100 µM
GI50 [5]: 1.44 µM
TGI [5]: > 100 µM
TGI [6]: > 100 µM
GI50 [7]: 0.901 µM
TGI [7]: > 100 µM
GI50 [8]: 1.73 µM
TGI [8]: > 100 µM

C=C1[C@@H]2CCC(C)(C)[C@H]1CCC(=O)[C@@H]2C(=O)OC
TGI [2]: > 100 µM
TGI [3]: > 100 µM
TGI [10]: > 100 µM
TGI [4]: > 100 µM
TGI [6]: > 100 µM
TGI [7]: > 100 µM
TGI [8]: > 100 µM
TGI [9]: > 100 µM

COc1ccc(S(=O)(=O)Nc2c(/C=C\c3cc(OC)c(OC)c(OC)c3)ccc(OC)c2O)cc1OC
GI50 [1]: 0.388 µM
TGI [1]: > 100 µM
GI50 [2]: 0.283 µM
TGI [2]: > 100 µM
GI50 [4]: 0.42 µM
TGI [4]: > 100 µM
GI50 [5]: 0.0776 µM
TGI [5]: > 100 µM
GI50 [6]: > 78.2 µM
TGI [6]: > 100 µM
GI50 [7]: 0.0985 µM
TGI [7]: 0.435 µM
GI50 [8]: 0.44 µM
TGI [8]: > 100 µM
GI50 [9]: 0.472 µM
TGI [9]: 2.99 µM

COc1ccc2c(C(=O)NCCCCCC(=O)O)cc3cc4c(cc3c2c1)OCO4
GI50 [1]: > 100 µM
TGI [1]: > 100 µM
GI50 [2]: > 100 µM
TGI [2]: > 100 µM
GI50 [3]: 83.5 µM
TGI [3]: > 100 µM
GI50 [10]: > 100 µM
TGI [10]: > 100 µM
GI50 [4]: > 100 µM
TGI [4]: > 100 µM
GI50 [6]: > 100 µM
TGI [6]: > 100 µM
GI50 [7]: > 100 µM
TGI [7]: > 100 µM
GI50 [8]: > 100 µM
TGI [8]: > 100 µM
GI50 [9]: > 100 µM
TGI [9]: > 100 µM

NCCCSCC(=O)O
TGI [3]: > 100 µM
TGI [10]: > 100 µM
TGI [4]: > 100 µM
TGI [5]: > 100 µM
TGI [6]: > 100 µM
TGI [7]: > 100 µM
TGI [8]: > 100 µM
TGI [9]: > 100 µM

COC(=O)C1=CCS(=O)(=O)C1
TGI [2]: > 100 µM
TGI [3]: > 100 µM
TGI [10]: > 100 µM
TGI [4]: > 100 µM
TGI [6]: > 100 µM
TGI [7]: > 100 µM
TGI [8]: > 100 µM
TGI [9]: > 100 µM

O=C1C2Cc3ccccc3CN2C(=O)N1CCN1CCOCC1 (stereo unspecified)
TGI [2]: > 100 µM
TGI [3]: > 100 µM
TGI [4]: > 100 µM
TGI [5]: > 100 µM
TGI [7]: > 100 µM
TGI [8]: > 100 µM
TGI [9]: > 100 µM

CC(NC(=O)C1(N)CCCC1)C(=O)O (stereo unspecified)
TGI [1]: > 100 µM
TGI [3]: > 100 µM
TGI [10]: > 100 µM
TGI [4]: > 100 µM
TGI [5]: > 100 µM
TGI [6]: > 100 µM
TGI [7]: > 100 µM
TGI [8]: > 100 µM
TGI [9]: > 100 µM

COc1ccc(/C=C\c2cc(OC)c(OC(C)=O)c(OC)c2)cc1
TGI [3]: > 100 µM
TGI [4]: > 100 µM
TGI [5]: 39.7 µM
TGI [6]: 95.1 µM
TGI [7]: 20.5 µM
TGI [8]: 38.6 µM
TGI [9]: > 100 µM

OCC1C2C=CC(O2)[C@H]1CO (stereo partly specified)
TGI [2]: > 100 µM
TGI [3]: > 100 µM
TGI [10]: > 100 µM
TGI [4]: > 100 µM
TGI [5]: > 100 µM
TGI [6]: > 100 µM
TGI [7]: > 100 µM
TGI [8]: > 100 µM
TGI [9]: > 100 µM

Nc1c(-c2ccc(-c3c(N)[n+]([O-])c4ccccc4[n+]3[O-])cc2)[n+]([O-])c2ccccc2[n+]1[O-]
TGI [2]: 37.3 µM
TGI [3]: 45 µM
TGI [4]: 26.9 µM
TGI [5]: 3.65 µM
TGI [6]: 13.8 µM
TGI [7]: 23.6 µM
TGI [8]: > 100 µM
TGI [9]: 29.6 µM

Cc1ccc(Sc2cc([N+](=O)[O-])cc(Sc3ccc(C)cc3)c2Sc2ccc(C)cc2)cc1
TGI [2]: > 100 µM
TGI [3]: > 100 µM
TGI [10]: > 100 µM
TGI [4]: > 100 µM
TGI [6]: > 100 µM
TGI [7]: > 100 µM
TGI [8]: > 100 µM
TGI [9]: > 100 µM

O=C1CCC(=O)C12CCc1ccccc12
TGI [2]: > 100 µM
TGI [10]: > 100 µM
TGI [4]: > 100 µM
TGI [9]: > 100 µM

CC(=O)Oc1cc(OC(C)=O)c(OC(C)=O)c2c1CC1C(=O)C3(CCc4ccccc43)C(=O)C1C2 (stereo unspecified)
TGI [2]: 28.3 µM
TGI [10]: 28.6 µM
TGI [4]: 26.4 µM
TGI [9]: 37.9 µM

O=C1OC(=O)C2C1C1(c3ccccc3)OC2(c2ccccc2)c2c(Br)c(Br)c(Br)c(Br)c21 (stereo unspecified)
TGI [2]: > 100 µM
TGI [3]: > 100 µM
TGI [10]: > 100 µM
TGI [4]: > 100 µM
TGI [5]: > 100 µM
TGI [6]: > 100 µM
TGI [7]: > 100 µM
TGI [8]: > 100 µM
TGI [9]: > 100 µM
